Experiments:
Experiment in all cases: Test 14 field trial, preemergence, growth as percent of control
[1] = tested on: ladysthumb smartweed (POLPE); assay type: in vivo, Polygonum persicaria
Source text: (§1) Corn seeds (hybrid ‘Pioneer 31G96 RR’) were planted in mid spring season, 3.8 cm deep in a clay loam soil having 2% organic matter and a pH of 6.6. Plots were 6.1 m long by 3.0 m wide with rows spaced 76 cm apart. Seeds were spaced 15 cm apart within the rows. The field was managed using conventional tillage practices. […] Yellow nutsedge was only evaluated 19 and 28 days after application, and ivyleaf morningglory could only be evaluated 28 days after application. […] Results are the means of the three replicates. This growth inhibition data was converted to results in the form of “plant growth as a percent of control plant growth” using the calculation “100 minus growth inhibition”. […] For “growth as a percent of control” data, Colby's Equation calculates the expected additive effect of herbicidal mixtures having two active ingredients as follows:
(§2) Ga+b=GaGb/100 • wherein Ga+b is the growth as a percent of control of plants treated with the mixture expected from additive contribution of the individual components, • Ga is the observed growth as a percent of control of plants treated with the first active ingredient at the same use rate as in the mixture, and • Gb is the observed growth as a percent of control of plants treated with the second active ingredient at the same use rate as in the mixture. For mixtures having three active ingredients, Colby's Equation to calculate the expected additive effect of herbicidal mixtures is as follows:
(§3) Ga+b+c=GaGbGc/10,000 • wherein Ga and Gb are as defined above and • Ga+b+c is the growth as a percent of control of plants treated with the mixture expected from additive contribution of the individual components, and • Gc is the observed growth as a percent of control of plants treated with the third active ingredient at the same use rate as in the mixture. When these two forms of Colby's Equation are used, if the observed effects on weeds are less than the expected values, the mixture is synergistic.

[2] = tested on: velvetleaf (ABUTH); assay type: in vivo, Abutilon theophrasti
Source text: as §1, §2, §3

[3] = tested on: jimsonweed (DATST); assay type: in vivo, Datura stramonium
Source text: as §1, §2, §3

[4] = tested on: ivyleaf morningglory (IPOHE); assay type: in vivo, Ipomoea hederacea; conditions: 28 DAA
Source text: as §1, §2, §3

[5] = tested on: yellow nutsedge (CYPES); assay type: in vivo, Cyperus esculentus
Source text: as §1, §2, §3

[6] = tested on: giant ragweed (AMBTR); assay type: in vivo, Ambrosia trifida
Source text: as §1, §2, §3

[7] = tested on: common ragweed (AMBEL); assay type: in vivo, Ambrosia artemisiifolia
Source text: as §1, §2, §3

[8] = tested on: giant foxtail (SETFA); assay type: in vivo, Setaria faberi
Source text: as §1, §2, §3

With `CCS(=O)(=O)c1cccnc1S(=O)(=O)NC(=O)Nc1nc(OC)cc(OC)n1` [Rimsulfuron] as the molecule, how does the “Obs growth % of control” value ([1]; 19 DAA, 12 g a.i./ha) read?
Its value is 82%.

What about the “Obs growth % of control” value ([1]; 19 DAA, 24 g a.i./ha) of the same molecule?
Its value is 58%.

And the “Obs growth % of control” value ([1]; 19 DAA, 36 g a.i./ha)?
Its value is 32%.

And the “Obs growth % of control” value ([1]; 28 DAA, 12 g a.i./ha)?
Its value is 100%.

And the “Obs growth % of control” value ([1]; 28 DAA, 24 g a.i./ha)?
The value was 33%.

And the “Obs growth % of control” value ([1]; 28 DAA, 36 g a.i./ha)?
Its value is 35%.

And the “Obs growth % of control” value ([1]; 56 DAA, 12 g a.i./ha)?
Its value is 100%.

What about the “Obs growth % of control” value ([2]; 19 DAA, 12 g a.i./ha) of the same molecule?
The value was 78%.

And the “Obs growth % of control” value ([2]; 19 DAA, 24 g a.i./ha)?
Its value is 62%.

What about the “Obs growth % of control” value ([2]; 19 DAA, 36 g a.i./ha) of the same molecule?
Its value is 52%.

And the “Obs growth % of control” value ([2]; 28 DAA, 12 g a.i./ha)?
The value was 53%.

And the “Obs growth % of control” value ([2]; 28 DAA, 24 g a.i./ha)?
Its value is 13%.

And the “Obs growth % of control” value ([2]; 28 DAA, 36 g a.i./ha)?
The value was 15%.

And the “Obs growth % of control” value ([2]; 56 DAA, 12 g a.i./ha)?
Its value is 93%.

And the “Obs growth % of control” value ([2]; 56 DAA, 24 g a.i./ha)?
The value was 65%.

And the “Obs growth % of control” value ([2]; 56 DAA, 36 g a.i./ha)?
Its value is 62%.

What about the “Obs growth % of control” value ([3]; 19 DAA, 12 g a.i./ha) of the same molecule?
The value was 100%.

And the “Obs growth % of control” value ([3]; 19 DAA, 24 g a.i./ha)?
The value was 93%.

What about the “Obs growth % of control” value ([3]; 19 DAA, 36 g a.i./ha) of the same molecule?
Its value is 85%.

And the “Obs growth % of control” value ([3]; 28 DAA, 12 g a.i./ha)?
The value was 100%.

And the “Obs growth % of control” value ([3]; 28 DAA, 24 g a.i./ha)?
Its value is 62%.

What about the “Obs growth % of control” value ([3]; 28 DAA, 36 g a.i./ha) of the same molecule?
Its value is 48%.

And the “Obs growth % of control” value ([3]; 56 DAA, 12 g a.i./ha)?
The value was 100%.

What about the “Obs growth % of control” value ([3]; 56 DAA, 24 g a.i./ha) of the same molecule?
Its value is 92%.

And the “Obs growth % of control” value ([3]; 56 DAA, 36 g a.i./ha)?
Its value is 92%.

What about the “Obs growth % of control” value ([4]; 12 g a.i./ha) of the same molecule?
Its value is 100%.

And the “Obs growth % of control” value ([4]; 24 g a.i./ha)?
Its value is 3%.

And the “Obs growth % of control” value ([4]; 36 g a.i./ha)?
Its value is 43%.

What about the “Obs growth % of control” value ([5]; 19 DAA, 12 g a.i./ha) of the same molecule?
The value was 85%.

And the “Obs growth % of control” value ([5]; 19 DAA, 24 g a.i./ha)?
The value was 85%.

And the “Obs growth % of control” value ([5]; 19 DAA, 36 g a.i./ha)?
The value was 70%.

And the “Obs growth % of control” value ([5]; 28 DAA, 12 g a.i./ha)?
The value was 83%.

What about the “Obs growth % of control” value ([5]; 28 DAA, 24 g a.i./ha) of the same molecule?
Its value is 60%.

And the “Obs growth % of control” value ([5]; 28 DAA, 36 g a.i./ha)?
The value was 50%.

And the “Obs growth % of control” value ([6]; 19 DAA, 12 g a.i./ha)?
The value was 88%.

And the “Obs growth % of control” value ([6]; 19 DAA, 24 g a.i./ha)?
The value was 80%.

What about the “Obs growth % of control” value ([6]; 19 DAA, 36 g a.i./ha) of the same molecule?
The value was 75%.

What about the “Obs growth % of control” value ([6]; 28 DAA, 12 g a.i./ha) of the same molecule?
The value was 100%.

What about the “Obs growth % of control” value ([6]; 28 DAA, 24 g a.i./ha) of the same molecule?
The value was 60%.

What about the “Obs growth % of control” value ([6]; 28 DAA, 36 g a.i./ha) of the same molecule?
The value was 60%.

And the “Obs growth % of control” value ([6]; 56 DAA, 12 g a.i./ha)?
The value was 90%.

And the “Obs growth % of control” value ([6]; 56 DAA, 24 g a.i./ha)?
The value was 83%.

And the “Obs growth % of control” value ([6]; 56 DAA, 36 g a.i./ha)?
Its value is 68%.

And the “Obs growth % of control” value ([7]; 19 DAA, 12 g a.i./ha)?
Its value is 88%.

What about the “Obs growth % of control” value ([7]; 19 DAA, 24 g a.i./ha) of the same molecule?
Its value is 80%.

And the “Obs growth % of control” value ([7]; 19 DAA, 36 g a.i./ha)?
The value was 68%.

What about the “Obs growth % of control” value ([7]; 28 DAA, 12 g a.i./ha) of the same molecule?
The value was 100%.

And the “Obs growth % of control” value ([7]; 28 DAA, 24 g a.i./ha)?
The value was 45%.

What about the “Obs growth % of control” value ([7]; 28 DAA, 36 g a.i./ha) of the same molecule?
The value was 33%.

What about the “Obs growth % of control” value ([7]; 56 DAA, 12 g a.i./ha) of the same molecule?
Its value is 85%.

And the “Obs growth % of control” value ([7]; 56 DAA, 24 g a.i./ha)?
The value was 63%.

What about the “Obs growth % of control” value ([7]; 56 DAA, 36 g a.i./ha) of the same molecule?
The value was 53%.

What about the “Obs growth % of control” value ([8]; 19 DAA, 12 g a.i./ha) of the same molecule?
The value was 32%.

What about the “Obs growth % of control” value ([8]; 19 DAA, 24 g a.i./ha) of the same molecule?
The value was 33%.

What about the “Obs growth % of control” value ([8]; 19 DAA, 36 g a.i./ha) of the same molecule?
The value was 7%.

And the “Obs growth % of control” value ([8]; 28 DAA, 12 g a.i./ha)?
The value was 33%.

And the “Obs growth % of control” value ([8]; 28 DAA, 24 g a.i./ha)?
The value was 9%.

And the “Obs growth % of control” value ([8]; 28 DAA, 36 g a.i./ha)?
The value was 5%.

What about the “Obs growth % of control” value ([8]; 56 DAA, 12 g a.i./ha) of the same molecule?
The value was 70%.

And the “Obs growth % of control” value ([8]; 56 DAA, 24 g a.i./ha)?
The value was 40%.

And the “Obs growth % of control” value ([8]; 56 DAA, 36 g a.i./ha)?
The value was 28%.

From US20100285959A1, “HERBICIDAL MIXTURES” (priority 2006, published 2010)
